# Read-outs that look alike come from different tables or passages of the source.
# Key:
# plasma hemostasis [1] = assay: Prothrombin time after intravenous administration; assay type: in vivo, rabbit; conditions: for effect on the prothrombin time index (overall): doses of 15.0, 30.0, 60.0 mg/kg
# Experimental: (§1) The investigations were performed on 72 rabbits of the “Chinchilla” breed with a mass of 2.5±0.3 kg, who were administered which solutions of compounds 2, 15, 21, 37 in doses of 15, 30 and 60 mg/kg intravenously. The experiments included the thrombin-test (series No. 7300) and the coagulability-test (series No. 5000) purchased from the scientific-and-production association (SPA) “Renam”, thromboplastin (series No. 240600) and calcium chloride purchased from the SPA “MedioLab”
# (§2) The static parameters of the blood and plasma coagulation (partial activated thromboplastin time, thrombin time, maximum coagulation activity (test for auto coagulation) were determined using the Behnk Electronic coagulometer (Germany). The operating principle of this instrument is based on the fact that the formed blood clot breaks the contacts of the pulse counter in the flask-pin circuit, said pin permanently oscillating in a vertical plane. The moment of formation of the clot is registered by stopping the stop watch hand.
# (§3) The measurements were effected at a constant temperature of 37° C. maintained by a temperature control unit.
# The method of its determination is based on estimation of the coagulation of citrate or oxalic blood plasma, when it is mixed with thromboplastin and a calcium chloride solution. Since under these conditions the time of formation of the clot depends on the content of II, VII, IX and X factors in the investigated plasma sample, now the test is called “thromboplastin time by Quick” or “activity thromboplastin complex”.
# Compounds 2, 15, 21, 37 according to the invention at a concentration of 15, 30 and 60 mg/kg were administered to the above experimental animals intravenously and their blood was taken off after 15, 30, 60 and 120 minutes after the administration.
# Citrate blood containing 1 part of citrate per 9 parts of native blood was centrifuged at 3000 rev/min for 10 minutes to obtain plasma deprived of thrombocytes.
# Added into a test tube in a water bath were 0.1 ml of plasma and 0.1 ml of a thromboplastin solution. After 60 seconds, 0.1 ml of 0.277% solution of calcium chloride was added and the time of reaction T1 in seconds was registered.
# plasma hemostasis [2] = assay: Autocoagulation test (coagulating activity A) after intravenous administration; assay type: in vivo, rabbit; conditions: for effect on the coagulation activity, autocoagulation test (overall): doses 15.0, 30.0, 60.0 mg/kg
# Experimental: as §1, §2, §3
# Compounds 2, 15, 21, 37 according to the invention at a concentration of 15, 30 and 60 mg/kg were intravenously administered to the above experimental animals and their blood samples were taken off 15, 30, 60 and 120 minutes after the administration.
# Added to 0.2 ml of plasma obtained by centrifuging citrate blood at 1500 rev/min within 10 minutes was a glycosilate-calcium mixture (2.0 ml 0.222% CaCl2+0.1 ml of investigated citrate blood) 4, 6, 8, 10 minutes after the preparation of this mixture and the time of coagulation in the sample was determined.
# The obtained results in seconds were translated in factors of coagulating activity A in percent, which specify the state of both the coagulating and anticoagulating parts of the blood coagulating system.
# [3] = Chronic toxicity, rectal suppositories: indexes of peripheral blood; conditions: male rats; for Basophiles / Juveniles: 1 month/2 months (one value given)
# Experimental: (§4) The experiments were conducted on inbred rats. The experimental animals were selected in groups by a method of random sampling taking into account the body mass as a determining index; 24 males or 24 females for one preparation from compounds 2, 15, 23, 34, 37 investigated in one dose.
# (§5) Two doses of preparations used in the experiments: 50 mg/kg and 500 mg/kg. Before the administration, the suppositories were softened by heating in a glass water bath at a temperature of 38-39° C., the soft mass was collected in tuberculin syringe in a volume of 1 ml, a needle with oliva was attached to the syringe, and the preparatory mass was introduced into the rectum of the animal for a depth of 1.5-2.0 cm. The animals of the control group were administered with sterile medical liquid paraffin in a volume corresponding to the volume of the investigated suppository. A complete course of administration of drugs to the animals was two months. A complex of laboratory diagnostic investigations was carried out one month after the beginning of the administration of the preparation to the animal—in a middle of the course (8 animals), two months after ending the course (8 animals) and three months after ending the recovery period of one month (8 animals). The mass of the body of the rats in the first month of administration of the preparation was determined weekly, and then once in two weeks. On the basis of the dynamics of an index of the mass of the animal body, the volume of preparation being administered was corrected taking into account the test dose.
# [4] = rat, in vivo
# Experimental: as §4, §5
# [5] = suppositories 50 mg/kg, 1 month
# [6] = suppositories 50 mg/kg, 2 months
# [7] = suppositories 500 mg/kg, 1 month
# [8] = suppositories 500 mg/kg, 2 months
smiles,measurement,setting,value
"Nc1ccnc2c(=O)n([C@@H]3O[C@H](CO)[C@@H](O)[C@H]3O)[nH]c(=O)c12 [Compound 2, 4-amino-7-(β-D-ribofuranosile)pyrido[2,3-d]-6H-pyridazine-5,8-dione]","T, s After 120 minutes (prothrombin time)",plasma hemostasis [1]; dose 15.0 mg/kg intravenously,11.7 ± 0.1 s
same,"T, s after 15 minutes (prothrombin time)",plasma hemostasis [1]; dose 15.0 mg/kg intravenously,11.7 ± 0.2 s
same,"T, s after 30 minutes (prothrombin time)",plasma hemostasis [1]; dose 15.0 mg/kg intravenously,11.5 ± 0.2 s
same,"T, s after 60 minutes (prothrombin time)",plasma hemostasis [1]; dose 15.0 mg/kg intravenously,11.4 ± 0.2 s
same,"T, s After 120 minutes (prothrombin time)",plasma hemostasis [1]; dose 30.0 mg/kg intravenously,11.2 ± 0.2 s
same,"T, s after 15 minutes (prothrombin time)",plasma hemostasis [1]; dose 30.0 mg/kg intravenously,11.1 ± 0.2 s
same,"T, s after 30 minutes (prothrombin time)",plasma hemostasis [1]; dose 30.0 mg/kg intravenously,11.0 ± 0.1 s
same,"T, s after 60 minutes (prothrombin time)",plasma hemostasis [1]; dose 30.0 mg/kg intravenously,11.3 ± 0.1 s
same,"T, s After 120 minutes (prothrombin time)",plasma hemostasis [1]; dose 60.0 mg/kg intravenously,11.9 ± 0.1 s
same,"T, s after 15 minutes (prothrombin time)",plasma hemostasis [1]; dose 60.0 mg/kg intravenously,12.0 ± 0.1 s
same,"T, s after 30 minutes (prothrombin time)",plasma hemostasis [1]; dose 60.0 mg/kg intravenously,11.9 ± 0.2 s
same,"T, s after 60 minutes (prothrombin time)",plasma hemostasis [1]; dose 60.0 mg/kg intravenously,12.1 ± 0.2 s
same,effect on the prothrombin time index (overall),plasma hemostasis [1],have no effect on the prothrombin time index
same,"A, % after 15 minutes (coagulating activity)",plasma hemostasis [2]; dose 15.0 mg/kg intravenously,80.2%
same,"A, % after 30 minutes (coagulating activity)",plasma hemostasis [2]; dose 15.0 mg/kg intravenously,100.0%
same,"A, % after 60 minutes (coagulating activity)",plasma hemostasis [2]; dose 15.0 mg/kg intravenously,87.4%
same,"A, % after 120 minutes (coagulating activity)",plasma hemostasis [2]; dose 15.0 mg/kg intravenously,98.0%
same,"A, % after 15 minutes (coagulating activity)",plasma hemostasis [2]; dose 30.0 mg/kg intravenously,98.4%
same,"A, % after 30 minutes (coagulating activity)",plasma hemostasis [2]; dose 30.0 mg/kg intravenously,71.2%
same,"A, % after 60 minutes (coagulating activity)",plasma hemostasis [2]; dose 30.0 mg/kg intravenously,104.2%
same,"A, % after 120 minutes (coagulating activity)",plasma hemostasis [2]; dose 30.0 mg/kg intravenously,70.9%
same,"A, % after 15 minutes (coagulating activity)",plasma hemostasis [2]; dose 60.0 mg/kg intravenously,72.3%
same,"A, % after 30 minutes (coagulating activity)",plasma hemostasis [2]; dose 60.0 mg/kg intravenously,60.8%
same,"A, % after 60 minutes (coagulating activity)",plasma hemostasis [2]; dose 60.0 mg/kg intravenously,62.5%
same,"A, % after 120 minutes (coagulating activity)",plasma hemostasis [2]; dose 60.0 mg/kg intravenously,65.7%
same,"effect on the coagulation activity, autocoagulation test (overall)",plasma hemostasis [2],have no effect on the coagulation activity
same,Average volume of erythrocytes,[3]; [5],83.4 ± 1.4 Mkm^3
same,"Coagulation, time",[3]; [5],145 ± 16 s
same,Eosinophiles,[3]; [5],3.4 ± 0.6%
same,Erythrocytes,[3]; [5],5.60 ± 2 mln/mm^3
same,Haematocrite,[3]; [5],47.8 ± 1.3%
same,Hemoglobin,[3]; [5],10.5 ± 0.1 mmol/L
same,Leukocyte,[3]; [5],16.0 ± 1.4 thousand/mm^3
same,REE,[3]; [5],1.9 ± 0.3 mm/h
same,Reticulocytes,[3]; [5],2.8 ± 0.2/2.8 ± 0.2%
same,Stab neutrophil,[3]; [5],0.8 ± 0.3%
same,Thrombocytes,[3]; [5],659 ± 26
same,Basophiles,[3]; suppositories 50 mg/kg,0%
same,Juveniles,[3]; suppositories 50 mg/kg,0%
same,Average volume of erythrocytes,[3]; [6],77.9 ± 2.1 Mkm^3
same,"Coagulation, time",[3]; [6],322 ± 18 s
same,Eosinophiles,[3]; [6],4.2 ± 0.8%
same,Erythrocytes,[3]; [6],6.1 ± 0.1 mln/mm^3
same,Haematocrite,[3]; [6],47.9 ± 1.5%
same,Hemoglobin,[3]; [6],11.1 ± 0.1 mmol/L
same,Leukocyte,[3]; [6],19.3 ± 1.6 thousand/mm^3
same,REE,[3]; [6],1.7 ± 0.1 mm/h
same,Reticulocytes,[3]; [6],2.8 ± 0.2/2.8 ± 0.2%
same,Stab neutrophil,[3]; [6],1.7 ± 0.3%
same,Thrombocytes,[3]; [6],566 ± 20
same,Average volume of erythrocytes,[3]; [7],85.2 ± 1.2 Mkm^3
same,"Coagulation, time",[3]; [7],149 ± 11 s
same,Eosinophiles,[3]; [7],3.2 ± 0.9%
same,Erythrocytes,[3]; [7],5.6 ± 0.1 mln/mm^3
same,Haematocrite,[3]; [7],47.5 ± 1.6%
same,Hemoglobin,[3]; [7],10.6 ± 0.1 mmol/L
same,Leukocyte,[3]; [7],15.6 ± 0.8 thousand/mm^3
same,REE,[3]; [7],2.1 ± 0.3 mm/h
same,Reticulocytes,[3]; [7],2.9 ± 0.3%
same,Stab neutrophil,[3]; [7],0.9 ± 0.2%
same,Thrombocytes,[3]; [7],681 ± 26
same,Basophiles,[3]; suppositories 500 mg/kg,0%
same,Juveniles,[3]; suppositories 500 mg/kg,0%
same,Average volume of erythrocytes,[3]; [8],72.0 ± 2.5 Mkm^3
same,"Coagulation, time",[3]; [8],305 ± 13 s
same,Eosinophiles,[3]; [8],4.8 ± 1.6%
same,Erythrocytes,[3]; [8],6.5 ± 0.1 mln/mm^3
same,Haematocrite,[3]; [8],50.3 ± 2.0%
same,Hemoglobin,[3]; [8],12.3 ± 0.3 mmol/L
same,Leukocyte,[3]; [8],18.6 ± 1.9 thousand/mm^3
same,REE,[3]; [8],1.9 ± 0.1 mm/h
same,Reticulocytes,[3]; [8],3.5 ± 0.2%
same,Stab neutrophil,[3]; [8],1.1 ± 0.3%
same,Thrombocytes,[3]; [8],583 ± 25
"O=c1[nH][nH]c(=O)c2c(Br)ncnc12.[K] [Compound 37, potassium salt of 4-bromine-pyrimido[4,5-D]-6H-pyridazine-5,8-dione]","T, s After 120 minutes (prothrombin time)",plasma hemostasis [1]; dose 15.0 mg/kg intravenously,11.8 ± 0.1 s
same,"T, s after 15 minutes (prothrombin time)",plasma hemostasis [1]; dose 15.0 mg/kg intravenously,11.6 ± 0.2 s
same,"T, s after 30 minutes (prothrombin time)",plasma hemostasis [1]; dose 15.0 mg/kg intravenously,11.6 ± 0.1 s
same,"T, s after 60 minutes (prothrombin time)",plasma hemostasis [1]; dose 15.0 mg/kg intravenously,11.5 ± 0.2 s
same,"T, s After 120 minutes (prothrombin time)",plasma hemostasis [1]; dose 30.0 mg/kg intravenously,11.1 ± 0.1 s
same,"T, s after 15 minutes (prothrombin time)",plasma hemostasis [1]; dose 30.0 mg/kg intravenously,11.3 ± 0.1 s
same,"T, s after 30 minutes (prothrombin time)",plasma hemostasis [1]; dose 30.0 mg/kg intravenously,11.2 ± 0.2 s
same,"T, s after 60 minutes (prothrombin time)",plasma hemostasis [1]; dose 30.0 mg/kg intravenously,11.4 ± 0.1 s
same,"T, s After 120 minutes (prothrombin time)",plasma hemostasis [1]; dose 60.0 mg/kg intravenously,12.0 ± 0.1 s
same,"T, s after 15 minutes (prothrombin time)",plasma hemostasis [1]; dose 60.0 mg/kg intravenously,12.1 ± 0.1 s
same,"T, s after 30 minutes (prothrombin time)",plasma hemostasis [1]; dose 60.0 mg/kg intravenously,12.0 ± 0.1 s
same,"T, s after 60 minutes (prothrombin time)",plasma hemostasis [1]; dose 60.0 mg/kg intravenously,12.1 ± 0.2 s
same,effect on the prothrombin time index (overall),plasma hemostasis [1],have no effect on the prothrombin time index
same,"A, % after 15 minutes (coagulating activity)",plasma hemostasis [2]; dose 15.0 mg/kg intravenously,82.1%
same,"A, % after 30 minutes (coagulating activity)",plasma hemostasis [2]; dose 15.0 mg/kg intravenously,102.8%
same,"A, % after 60 minutes (coagulating activity)",plasma hemostasis [2]; dose 15.0 mg/kg intravenously,88.7%
same,"A, % after 120 minutes (coagulating activity)",plasma hemostasis [2]; dose 15.0 mg/kg intravenously,100.6%
same,"A, % after 15 minutes (coagulating activity)",plasma hemostasis [2]; dose 30.0 mg/kg intravenously,99.8%
same,"A, % after 30 minutes (coagulating activity)",plasma hemostasis [2]; dose 30.0 mg/kg intravenously,68.3%
same,"A, % after 60 minutes (coagulating activity)",plasma hemostasis [2]; dose 30.0 mg/kg intravenously,105.8%
same,"A, % after 120 minutes (coagulating activity)",plasma hemostasis [2]; dose 30.0 mg/kg intravenously,70.4%
same,"A, % after 15 minutes (coagulating activity)",plasma hemostasis [2]; dose 60.0 mg/kg intravenously,74.3%
same,"A, % after 30 minutes (coagulating activity)",plasma hemostasis [2]; dose 60.0 mg/kg intravenously,63.0%
same,"A, % after 60 minutes (coagulating activity)",plasma hemostasis [2]; dose 60.0 mg/kg intravenously,64.2%
same,"A, % after 120 minutes (coagulating activity)",plasma hemostasis [2]; dose 60.0 mg/kg intravenously,66.3%
same,"effect on the coagulation activity, autocoagulation test (overall)",plasma hemostasis [2],have no effect on the coagulation activity
same,Bilirubin (index of urine),[4]; 50 mg/kg,<5 Mkmol/l
same,Glucose (index of urine),[4]; 50 mg/kg,<5 mmol/L
same,Ketone bodies (index of urine),[4]; 50 mg/kg,<1 mmol/L
same,Potassium (index of urine),[4]; 50 mg/kg,6.12 ± 1.4 g/L
same,Protein (index of urine),[4]; 50 mg/kg,0.70 ± 0.19 g/L
same,Sodium (index of urine),[4]; 50 mg/kg,1.4 ± 0.2 g/L
same,Urea (index of urine),[4]; 50 mg/kg,427 ± 137 mmol/L
same,Urobilinogen (index of urine),[4]; 50 mg/kg,<15 Mkmol/l
same,pH (index of urine),[4]; 50 mg/kg,6.4 ± 0.4
same,Bilirubin (index of urine),[4]; 500 mg/kg,<5 Mkmol/l
same,Glucose (index of urine),[4]; 500 mg/kg,<5 mmol/L
same,Ketone bodies (index of urine),[4]; 500 mg/kg,<1 mmol/L
same,Potassium (index of urine),[4]; 500 mg/kg,6.44 ± 1.3 g/L
same,Protein (index of urine),[4]; 500 mg/kg,0.72 ± 0.14 g/L
same,Sodium (index of urine),[4]; 500 mg/kg,0.88 ± 0.4 g/L
same,Urea (index of urine),[4]; 500 mg/kg,489 ± 152 mmol/L
same,Urobilinogen (index of urine),[4]; 500 mg/kg,<15 Mkmol/l
same,pH (index of urine),[4]; 500 mg/kg,6.2 ± 0.3
